Laboratory results: patent publication US10266482B2, “Long-term memory inducing agent” (NATIONAL UNIVERSITY CORPORATION TOKYO MEDICAL AND DENTAL …, priority 2017, dated 2019)

Experiments:
aged mice = assay: Object recognition test (ORT) with aged mice; format: in vivo, ICR mice; conditions: for long-term memory formation (DI value, test trial 24 hours later): aged (14-month-old) mice
Protocol: 2-month-old male ICR mice (young mice) and 14-month-old male ICR mice (aged mice) were used. The rearing room was kept at 22° C. at cycles of 12 hours of light period/12 hours of dark period, and feed and drinking water were given freely. All of the experiments were conducted during the latter 6 hours of the light period.
N(1)-acetyl-5-methoxykynuramine (AMK) was used as a drug. AMK was diluted with physiological saline for the administration experiment with the aged mouse, and a dosage of 0.1 mg/kg bw or 1 mg/kg bw was intraperitoneally administered.
For an object recognition test, two each of two types of objects (height 6 cm×diameter 4 cm, height 7 cm×diameter 7 cm) and an observation box (height 30 cm×width 40 cm×depth 30 cm) were used. This test consisted of an acquisition trial and a test trial, and the experimental individuals were allowed to explore in the observation box 5 minutes a day for 3 days immediately before the experiment in order to adapt the experimental individuals to the observation box. In the acquisition trial, two identical objects were presented to the observation box and the experimental individuals were allowed to search for a minute. When the acquisition trials were conducted for more than one time, the acquisition trials were conducted at one-hour intervals. The test trial was conducted 24 hours or 4 days after the last acquisition trial. In the test trials, one of the two identical objects presented in the acquisition trials was exchanged with a different object (new object), and the experimental individuals were allowed to search for 5 minutes. During the test trials, the time that took each of the mice to search for the object was measured, and the ratio of the searching time of the two objects (DI value: discrimination index) was calculated according to the following formula to examine the relative cognitive levels to the new object. DI value (%)=Tn×100/(Tf+Tn)
One-sample t-test was employed to compare the DI value with the expected value (50%).

young crickets = assay: Olfactory associative learning test in young crickets (single-time training, memory a day after); format: in vivo, Gryllus bimaculatus
Protocol: Male crickets about one week old (young) or three week old (aged) following molting into adult forms were used. Each of the crickets was placed into a 100 ml beaker three days before the experiment, and deprived of water for 2-3 days to enhance the desire of taking water. As the feed, about 10 pieces of insect feed were placed into the beaker.
A 1-ml syringe was used for smell and reward associative conditioning upon learning/training. The syringe contained water as the reward while a piece of paper (3 mm×3 mm) perfumed with peppermint essence was pierced into the needle to about 1 cm from the tip thereof. In this learning/training, the filter paper on the needle was brought near the antennae of the cricket to allow it to smell for 3 seconds and then a drop of water was put out from the tip of the needle and applied to the mouth of the cricket. When the associative conditioning was conducted for four times, the conditionings were conducted at intervals of 5 minutes.
Smell preference was examined by placing each cricket into a test arena. The arena consisted of a “standby chamber” and a “test chamber”. The floor of the “test chamber” had two holes each with a diameter of 4 cm which were communicated with two smell sources. The smell source was a plastic pot containing filter paper perfumed with essence of a smell (peppermint or vanilla) and covered with a gauze lid. In the preference test, each cricket was placed into the test chamber and allowed to walk freely for 4 minutes to search for the two smell sources. Two minutes after the start of the test, a rotary board having the smell sources was rotated to reverse the positions of the vanilla and the peppermint smells. During the test, the time the cricket spent placing its mouth to the gauze of the smell source was measured as a visiting time to the smell source, and the ratio of the visiting times of the two types of smells (PI value: preference index) was calculated according to the following formula to assess the relative preference to the mint smell. PI value=Tp/(Tp+Tv)×100 • Tp: Searching time for smell associated with the reward (peppermint) • Tv: Searching time for smell not associated with the reward (vanilla)
If the preferences for the two smells are equivalent, PI will be 50. Since crickets inherently prefer vanilla smell over peppermint smell, an average PI value prior to the learning/training is usually 25-35, The preference test was conducted before and after the learning/training to examine whether preference for the smell changes due to the learning/training.
As drugs, melatonin, N(1)-acetyl-N(2)-formyl-5-methoxykynuramine (AFMK), N(1)-acetyl-5-methoxykynuramine (AMK), 6-Hydroxymelatonin (6-HM), L-kynurenine, kynuramine, 8-Bromoguanoine 3′,5′-cyclic monophosphate sodium salt (8 br-cGMP) and cycloheximide (CHX) were used. Melatonin, 6-HM, kynurenine, kynuramine and 8br-cGMP were purchased from SIGMA Aldrich, AFMK was purchased from Cayman Chemical, AMK was purchased from Toronto Research Chemicals and CHX was purchased from Wako Pure Chemical Industries. The drugs other than 8br-cGMP and CHX were first dissolved in ethanol and then diluted with physiological saline for crickets to the respective concentrations. In the administration experiment, 3 μl was administered using a 10-μl syringe to the brain via an aperture opened through a simple eye of the head.
PI values were tested before the training and a day after the training in the same group by a Wilcoxon's-test.

## COc1ccc(N)c(C(=O)CCNC(C)=O)c1 [Compound 1, N-[3-(2-amino-5-methoxyphenyl)-3-oxopropyl]-acetamide]
Aged mice; 0.1 mg/kg bw i.p. 15 minutes after two one-minute acquisition trials
  long-term memory formation (DI value, test trial 24 hours later): a long-term memory was formed
Aged mice; 1 mg/kg bw i.p. 15 minutes after one one-minute acquisition trial
  long-term memory formation (DI value, test trial 24 hours later): a long-term memory was formed
Aged mice; aged mice, 1 mg/kg bw i.p. 15 minutes after one acquisition trial, test trials 1 and 4 days later
  duration of induced long-term memory: at least 4 days
Young crickets; 8 nM, 3 μl to the brain, 20 minutes after single-time training
  long-term memory formation a day after the training: not
Young crickets; 40 nM AMK versus 5 μM melatonin
  sufficient concentration relative to the concentration of melatonin: 1/125
Young crickets; 40 nM, 3 μl to the brain, 20 minutes after single-time training
  long-term memory formation a day after the training: formed
Young crickets; 0.2 μM, 3 μl to the brain, 20 minutes after single-time training
  long-term memory formation a day after the training: formed
Young crickets; 1 μM, 3 μl to the brain, 20 minutes after single-time training
  long-term memory formation a day after the training: formed
Young crickets; 1 μM, 3 μl, administered between 20 minutes and 80 minutes after single-time training
  long-term memory formation a day after the training: a long-term memory was formed
Young crickets; 5 μM, 3 μl to the brain, 20 minutes after single-time training, listed as AMK
  long-term memory formation a day after the training: long-term memories were formed
Young crickets; 5 μM, 3 μl to the brain, 20 minutes before single-time training
  long-term memory formation a day after the training: long-term memories were formed
Young crickets; 3 μl to the brain 20 minutes after single-time training
  administration concentration sufficient to form long-term memory: 40 nM
Young crickets; time following the single-time training, melatonin and AFMK 5 μM, AMK 1 μM
  timing of administration sufficient to form long-term memory: up to 80 minutes
